From article PMC3608651, “A Broad Profile of Co-Dominant Epitopes Shapes the Peripheral Mycobacterium tuberculosis Specific CD8+ T-Cell Immune Response in South African Patients with Active Tuberculosis” (PLoS ONE, 2013)
Read-outs that look alike come from different tables or passages of the source.

Assays:
Type in all cases: binding
[1] = molecular target: T1, HLA-A*68:01 (Homo sapiens, UniProt P04439, A269V/D185E/E176V/E277Q/E87N/F33Y/G231S/I121M/I166T/I218V/L180W/L300P/L318F/N151K/P208A/P217A/Q86R/R169H/T345S); details: duplicated experiments, positive binder >40%
[2] = molecular target: T1, HLA-A*68:01
[3] = molecular target: T1, HLA-A*68:01; details: time points 0-8 h
[4] = molecular target: T2, HLA-B*58:01 (Homo sapiens, UniProt P01889, A329T/C349S/D201E/D98Y/E176V/E187L/E204Q/E69T/G107R/I218V/I90N/K202T/L105A/L119I/N104I/N87E/Q89R/Q94S/R106L/R155S/R180L/R86G/S101N/S121R/S35A/S48A/T118I/V127L/V306I/V36M/Y140S/Y91M); details: duplicated experiments, positive binder >40%
[5] = molecular target: HLA-C*07:01 (Homo sapiens, UniProt P10321, K90N/S123Y); details: duplicated experiments, positive binder >40%
[6] = molecular target: HLA-A*02:01 (Homo sapiens, UniProt P04439, D140Y/D185E/D98H/E176V/E277Q/G131W/G231S/I119V/I121R/I166T/I218V/L300P/L318F/N151K/N90K/P208A/P217A/Q86G/Q94H/R138H/R169H/T345S); details: plate-bound monomer 0.5 µg/ml, duplicated experiments, positive binder >40%
[7] = molecular target: HLA-A*24:02 (Homo sapiens, UniProt P04439, D101N/D140Y/D185E/E176V/E190D/F33S/G103R/G107R/I119L/I121M/I306V/K335N/L105A/L180Q/L300P/N151K/N90K/Q86E/Q94H/R106L/R138H/R89G/T104I/T345S/V100E/W191G/Y123F); details: duplicated experiments, positive binder >40%
[8] = molecular target: HLA-A*30:01 (Homo sapiens, UniProt P04439, D140H/D185E/E176W/F33S/G80R/H175R/K168Q/R138E/R41S); details: duplicated experiments, positive binder >40%
[9] = molecular target: T3, HLA-A*30:02 (Homo sapiens, UniProt P04439, D101N/D140H/D185E/E176R/F33S/G80R/H175R/K168Q/Q94H/R138E/R41S/V100E); details: duplicated experiments, positive binder >40%
[10] = molecular target: HLA-B*07:02 (Homo sapiens, UniProt P01889); details: percent relative the binding of positive control peptide […]; duplicated experiments; positive binder >40%
[11] = molecular target: T2, HLA-B*58:01
[12] = molecular target: T2, HLA-B*58:01; details: time points 0-8 h
[13] = molecular target: T3, HLA-A*30:02
[14] = molecular target: T3, HLA-A*30:02; details: time points 0-8 h
[15] = percent relative the binding of positive control peptide […]
[16] = percent relative the binding of positive control peptide FLPSDFFPSV
[17] = percent relative the binding of positive control peptide RYLKDQQLL
[18] = percent relative the binding of positive control peptide KTKDIVNGL
[19] = percent relative the binding of positive control peptide KIQNFRVYY
[20] = percent relative the binding of positive control peptide KTGGPIYKR
[21] = percent relative the binding of positive control peptide IAMESIVIW
[22] = peptide titrated 10−4 to 10−9 M
[23] = percent relative the binding of positive control peptide KYFDEHYEY

Row | Substance | Bind A*68:01 [1, 15] [%] | Bind B*58:01 [4, 15] [%] | Bind C*07:01 [5, 15] [%] | Bind B*07:02 [10] [%] | Aff B*58:01 (ED50) [11] | O-rate B*58:01 (t1/2) [12] [h] | also measured
1 | NTMAMMARD [Rv0288_79–87] | 67 | 0 | 0 |  |  |  | Aff A*68:01 (ED50) [2]: 70000 nM; O-rate A*68:01 (t1/2) [3]: 2.3 h
2 | AGCQTYKW E | 4 | 121 | 0 | 2 | 2e-07 M | 2 | Bind A*02:01 [6, 15]: 12%; Bind A*24:02 [7, 15]: 31%; Bind A*30:01 [8, 15]: 3%; Bind A*30:02 [9, 15]: 18%
3 | MAMMARDTA [Rv0288_81–89] | 96 | 23 | 19 |  |  |  | Aff A*68:01 (ED50) [2]: 5000 nM; O-rate A*68:01 (t1/2) [3]: 2.0 h
4 | AAGGHNAVF | 0 | 101 | 39 | 9 | 2e-07 M | 0.7 | Bind A*02:01 [6, 15]: 31%; Bind A*24:02 [7, 15]: 34%; Bind A*30:01 [8, 15]: 15%; Bind A*30:02 [9, 15]: 67%
5 | TYQAWQAQW [Rv0288_50–58] | 0 | 119 | 0 |  | 1e-07 M | 1.0 | 
6 | MSQIMYNYP [Rv0288_1–9] | 29 | 57 | 10 |  | 4e-06 M | 1.1 | 
7 | DTGITYQAW [Rv0288_46–54] | 7 | 41 | 0 |  | 1e-06 M | 2.3 | 
8 | EANTMAMMA [Rv0288_77–85] | 83 | 0 | 3 |  |  |  | Aff A*68:01 (ED50) [2]: 700000 nM; O-rate A*68:01 (t1/2) [3]: 1.9 h
9 | NGT HSWEYW | 35 | 74 | 3 | 4 | 4E -08 M | 1.9 | Bind A*02:01 [6, 15]: 0%; Bind A*24:02 [7, 15]: 42%; Bind A*30:01 [8, 15]: 0%; Bind A*30:02 [9, 15]: 83%; Aff A*30:02 (ED50) [13]: 1000 nM; O-rate A*30:02 (t1/2) [14]: 1.6 h
10 | SAWQGDTGI [Rv0288_41–49] | 30 | 46 | 12 |  | 3e-08 M | 0.6 | 
11 | SLTKLAAAW [Rv3875_35–43] |  |  |  | 5 |  | 0.9 | Bind A*02:01 [6, 16]: 47%; Bind A*24:02 [7, 17]: 12%; Bind A*30:01 [8, 18]: 6%; Bind A*30:02 [9, 19]: 50%; Bind A*68:01 [1, 20]: 10%; Bind B*58:01 [4, 21]: 48%; Aff B*58:01 (ED50) [11, 22]: 4e-07 M; Bind C*07:01 [5, 23]: 8%
12 | SSTHEANTM [Rv0288_73–81] | 0 | 41 | 7 |  | 2e-06 M | 0.8 | 
13 | YQAWQAQWN [Rv0288_51–59] | 23 | 52 | 0 |  | 2e-06 M | 2.0 | 
14 | ANTMAMMAR [Rv0288_78–86] | 147 | 0 | 12 |  |  |  | Aff A*68:01 (ED50) [2]: 3000 nM; O-rate A*68:01 (t1/2) [3]: 2.4 h
15 | LTKLAAAWG [Rv3875_36-44] |  |  |  | 6 |  | 1.2 | Bind A*02:01 [6, 16]: 15%; Bind A*24:02 [7, 17]: 0%; Bind A*30:01 [8, 18]: 13%; Bind A*30:02 [9, 19]: 0%; Bind A*68:01 [1, 20]: 21%; Bind B*58:01 [4, 21]: 47%; Aff B*58:01 (ED50) [11, 22]: 7e-07 M; Bind C*07:01 [5, 23]: 13%
16 | QAALQSAWQ [Rv0288_36–44] | 17 | 62 | 7 |  | 5e-05 M | 0.5 | 
17 | TGITYQAWQ [Rv0288_47–55] | 8 | 40 | 0 |  | 4e-06 M | 0.8 | 
18 | RAYHSMSST [Rv0288_67–75m1] |  | 32 | 0 | 14 | 2e-08 M | 0.4 | Bind A*30:02 [9, 15]: 7%
19 | GITYQAWQA [Rv0288_48–56] | 0 | 46 | 0 |  | 9e-08 M | 0.2 | 
